Here are results for 3 compounds from US4415567A, “7α-Methoxycephalosporin derivatives, and antibacterial drugs containing the same” (Eisai Co., Ltd., priority 1980, dated 1983).

The term MIC denotes the least concentration at which growth counts as inhibited. As a reminder, the LD50 is the dose expected to kill half of the subjects tested. Read a low LD50 as greater toxicity.

In data set [1] the test system is Staphylococcus aureus 209-P. The data set is described as follows: MIC, standard agar dilution method, Staphylococcus aureus 209-P. Conditions: Mueller Hinton agar, 18 hours, 37° C. Type of data set: cell-based. As to the method:
(§1) Minimal inhibitory concentration (MIC) was determined by the standard agar dilution method of the Japan Society of Chemotherapy.
(§2) Compounds were dissolved in appropriate solvents (sterilized water for sodium salts and acetone-water [1:1] for free acids) and serial two-fold dilutions were made. Sodium salt of Cefazolin was chosen as the control compound.
(§3) One-ml aliquots of each dilution were mixed with 9 ml of Mueller Hinton gar in petri-dishes to make agar plates containing the compound at serially diluted concentrations. After agar hardened, plates were put in an incubator at 37° C. for 1.5-2 hours with the lids slightly open to evaporate acetone off the plates.
(§4) Test organisms were grown for 18 hours at 37° C. in Trypticase Soy broth and diluted in saline to approximately 10^6 colony forming units per ml. A loopful of each cell suspension was applied on the agar plate mentioned above and the plates were incubated for 18 hours at 37° C. before MIC was determined.
(§5) The results are shown in Table 2, wherein the compound of Example 5 was selected and used in a form of free carboxylic acid as set forth in the Example 5, Item (a).
Background: Agar dilution tests growth on a series of plates holding different concentrations.

Data set [2] concerns Escherichia coli NIHJ. Nature of the data set: MIC, standard agar dilution method, Escherichia coli NIHJ. Conditions: Escherichia coli NIHJ; Mueller Hinton agar, 18 hours, 37° C.; read-out: MIC. Type of data set: cell-based. As to the method: as §1, §2, §3, §4, §5
Data set [3] relates to Klebsielle pneumoniae EK-6. Nature of the data set: MIC, standard agar dilution method, Klebsielle pneumoniae EK-6. The format is cell-based. Conditions: Klebsielle pneumoniae EK-6; Mueller Hinton agar, 18 hours, 37° C.; read-out: MIC. As to the method: as §1, §2, §3, §4, §5
In data set [4] the test system is Proteus morganii EP-14. Nature of the data set: MIC, standard agar dilution method, Proteus morganii EP-14. The format is cell-based. Conditions: Morganella morganii, EP14, Mueller Hinton agar, 18 hours, 37° C. As to the method: as §1, §2, §3, §4, §5
In data set [5] the test system is Pseudomonas aeruginosa EP-172. The data set is described as follows: MIC, standard agar dilution method, Pseudomonas aeruginosa EP-172. The format is cell-based. Conditions: EP172, Mueller Hinton agar, 18 hours, 37° C. As to the method:
as §1, §2, §3, §4, §5

In data set [6] the test system is Serratia marcescens ES-75. Nature of the data set: MIC, standard agar dilution method, Serratia marcescens ES-75. The format is cell-based. Conditions: ES75, Mueller Hinton agar, 18 hours, 37° C. As to the method:
as §1, §2, §3, §4, §5

The test system of data set [7] is Proteus bulgaris E-18. Nature of the data set: MIC, standard agar dilution method, Proteus bulgaris E-18. The format is cell-based. Conditions: Mueller Hinton agar, 18 hours, 37° C. As to the method:
as §1, §2, §3, §4, §5

Data set [8] can be described thus: acute toxicity, LD50 (mouse, oral). Conditions: in vivo. The source says: The acute toxicity values [LD50 (mouse, oral)] for the following compounds of this invention were over 5 g/kg: […]

Converted amounts (≈) assume the structure as drawn.

As to `CO[C@@]1(NC(=O)[C@H](NC(=O)c2coc3cc(O)c(O)cc3c2=O)c2ccc(O)cc2)C(=O)N2C(C(=O)O)=C(CSc3nnnn3C)CS[C@@H]21` [Example 3, 7β-[D-2-(6,7-Dihydroxychromone-3-carboxamido)-2-(4-hydroxyphenyl)acetamido]-7α-methoxy-3-(1-methyl-5-tetrazolyl)thiomethyl-3-cephem-4-carboxylic acid], the MIC in data set [1] is 3.13 µg/mL (≈ 4.4 µM); in data set [2], 0.4 µg/mL (≈ 0.562 µM); in data set [3] it was ≤ 0.1 µg/mL; in data set [4], 3.13 µg/mL (≈ 4.4 µM); in data set [5], 0.8 µg/mL (≈ 1.12 µM); in data set [6] it was ≤ 0.1 µg/mL. In addition, the minimum inhibitory concentration (MIC) in data set [7] was found to be 0.8 µg/mL (≈ 1.12 µM). The LD50 in data set [8] is > 5000 mg/kg.
For `CCOC(=O)Oc1cc2occ(C(=O)N[C@@H](C(=O)N[C@]3(OC)C(=O)N4C(C(=O)O)=C(CSc5nnnn5CC(=O)OC)CS[C@@H]43)c3ccc(O)cc3)c(=O)c2cc1OC(=O)OCC` [Example 20, 7β-[D-2-(6,7-Bis(ethoxycarbonyloxy)chromone-3-carboxamido)-2-(4-hydroxyphenyl)acetamido]-7α-methoxy-3-(1-methoxycarbonylmethyl-5-tetrazolyl)thiomethyl-3-cephem-4-carboxylic acid], the minimum inhibitory concentration (MIC) is 6.25 µg/mL (≈ 6.84 µM) in data set [1]; 3.13 µg/mL (≈ 3.43 µM) in data set [2]; ≤ 0.1 µg/mL in data set [3]; 6.25 µg/mL (≈ 6.84 µM) in data set [4]; 0.4 µg/mL (≈ 0.438 µM) in data set [5]; 0.2 µg/mL (≈ 0.219 µM) in data set [6]. Further, the MIC in data set [7] came out at 0.8 µg/mL (≈ 0.875 µM). Also, the LD50 in data set [8] is > 5000 mg/kg.
`CO[C@@]1(NC(=O)[C@H](NC(=O)c2coc3cc(OC(=O)OCC(Cl)(Cl)Cl)c(OC(=O)OCC(Cl)(Cl)Cl)cc3c2=O)c2ccc(O)cc2)C(=O)N2C(C(=O)O)=C(CSc3nnnn3C)CS[C@@H]21` [Example 23, 7β-[D-2-(6,7-Bis(2,2,2-trichloroethoxycarbonyloxy)chromone-3-carboxamido)-2-(4-hydroxyphenyl)-acetamido]-7α-methoxy-3-(1-methyl-5-tetrazolyl)thiomethyl-3-cephem-4-carboxylic acid]: the minimum inhibitory concentration (MIC) in data set [1] was 3.13 µg/mL (≈ 2.95 µM); in data set [2], 6.25 µg/mL (≈ 5.88 µM); in data set [3] it was ≤ 0.1 µg/mL; in data set [4], 6.25 µg/mL (≈ 5.88 µM); in data set [5], 0.8 µg/mL (≈ 0.753 µM); in data set [6], 0.2 µg/mL (≈ 0.188 µM). The compound further returned a minimal inhibitory concentration (MIC) in data set [7] of 0.8 µg/mL (≈ 0.753 µM). In data set [8], the 50% lethal dose (LD50) is > 5000 mg/kg.
